Results reported in US20250171465A1, “AKT INHIBITORS” (Stablix, Inc., priority 2023, published 2025).

Experiments:
MDAMB468.1 = assay: Cell Titer Glo (CTG) proliferation assay, MDA-MB-468; type: cell-based; conditions: Homo sapiens, MDA-MB-468; MDAMB468.1 cells, 72.0 hrs.; read-out: AVE CTG Proliferation MDAMB468.1 72.0 hrs.
Description: (§1) Seed cells in 40 μL of cell culture media into each well of 384-well cell culture plate, spin them at room temperature at 1,000 RPM for 1 minute and then transfer the plates into 37° C. 5% CO2 incubator overnight. Next day, treat cells with 40 nL of diluted compound and return to incubator. After compound treatment for 3 days, Add 30 μL of CellTiter-Glo reagent (Promega) into each well to be detected. Then place the plates at room temperature for 30 min followed by reading on EnVision. Inhibition activity calculated as % DMSO=100×(LumSample-Lum low control)/(Lum high control-Lum low control) where high control is from cells treated with 0.1% DMSO and Low control obtained from PBS only. Use XLFit (equation 201) to calculate IC50 (A+ ((B−A)/(1[…]((x/C)^D)))) where A: Bottom, B: Top, C: IC50, D: Slope.

KU1919.1 = assay: Cell Titer Glo (CTG) proliferation assay, KU1919; type: cell-based; conditions: Homo sapiens, KU-19-19; KU1919.1 cells, 72.0 hrs.; read-out: AVE CTG Proliferation KU1919.1 72.0 hrs.
Description: as §1

SMILES | IC50 (MDAMB468.1) [µM] | IC50 (KU1919.1) [µM]
C[C@@H]1C[C@@H](O)c2ncnc(N3CCN(C(=O)[C@H](CNCCNC(=O)CNC45CCC(CN6CCN(C(=O)[C@H](NC(=O)c7cccc(C8CCCN(C(=O)C9CC9)C8)c7)C7CCCCC7)CC6)(CC4)OC5)c4ccc(Cl)cc4)CC3)c21 (some centres unmarked) [Compound I-215] | > 10 | > 10
CCc1cccc(-c2cnc(C(=O)NCCOCCNCC[C@H](NC(=O)C3(N)CCN(c4ncnc5[nH]ccc45)CC3)c3ccc(Cl)cc3)c(N)c2)c1 [Compound I-183] | 5 to 10 | 5 to 10
NC1(C(=O)N[C@@H](CCN2CCC(OC3CCN(C(=O)c4cccc(C5CCCN(C(=O)CNCc6ccc(F)cc6F)C5)c4)CC3)CC2)c2ccc(Cl)cc2)CCN(c2ncnc3[nH]ccc23)CC1 (some centres unmarked) [Compound I-253] | 1 to 5 | 1 to 5
CCc1cccc(-c2cnc(C(=O)N3CCC(OC4CCN(CC(=O)NCCNC[C@@H](C(=O)N5CCN(c6ncnc7c6[C@H](C)C[C@H]7O)CC5)c5ccc(Cl)cc5)CC4)CC3)c(NC(=O)CN3CCOCC3)c2)c1 [Compound I-174] | 1 to 5 | 1 to 5
CCc1cccc(-c2cnc(C(=O)NCCOCCNCC(=O)NCCN(C[C@@H](C(=O)N3CCN(c4ncnc5c4[C@H](C)C[C@H]5O)CC3)c3ccc(Cl)cc3)C(C)C)c(N)c2)c1 [Compound I-217] | 1 to 5 | 1 to 5
NC1(C(=O)N[C@@H](CCN2CCN(C(=O)CN3CCC(OC4CCN(C(=O)c5cccc(C6CCCN(C(=O)C7CC7)C6)c5)CC4)CC3)CC2)c2ccc(Cl)cc2)CCN(c2ncnc3[nH]ccc23)CC1 (some centres unmarked) [Compound I-255] | > 10 | > 10
C[C@@H]1C[C@@H](O)c2ncnc(N3CCN(C(=O)[C@H](CNCCNC(=O)CNC45CCC(CN6CCN(C(=O)[C@H](NC(=O)c7cccc(C8CCCN(C(=O)CNCc9ccc(F)cc9F)C8)c7)C7CCCCC7)CC6)(CC4)OC5)c4ccc(Cl)cc4)CC3)c21 (some centres unmarked) [Compound I-203] | 5 to 10 | 5 to 10
NC1(C(=O)N[C@@H](CCN2CCN(C(=O)CN3CCC(OC4CCN(C(=O)c5cc(C6CCCN(C(=O)CNCc7ccc(F)cc7F)C6)ccc5F)CC4)CC3)CC2)c2ccc(Cl)cc2)CCN(c2ncnc3[nH]ccc23)CC1 (some centres unmarked) [Compound I-223] | 1 to 5 | 1 to 5
NC1(C(=O)N[C@@H](CCN2CCN(C(=O)CN3CCC(OC4CCN(C(=O)[C@H](NC(=O)c5cc(C6CCCN(C(=O)CNCc7ccc(F)cc7F)C6)ccc5F)C5CCCCC5)CC4)CC3)CC2)c2ccc(Cl)cc2)CCN(c2ncnc3[nH]ccc23)CC1 (some centres unmarked) [Compound I-225] | 1 to 5 | 1 to 5
CCc1cccc(-c2cnc(C(=O)N3CCC(OC4CCN(CC(=O)NCCNC[C@@H](C(=O)N5CCN(c6ccnc7c6[C@H](C)C[C@H]7O)CC5)c5ccc(Cl)cc5)CC4)CC3)c(NC(=O)OC(C)(C)C)c2)c1 [Compound I-304] | 1 to 5 | 1 to 5
CCc1cccc(-c2cnc(C(=O)N3CCC(CN4CCN(CC(=O)NCCNC[C@@H](C(=O)N5CCN(c6ncnc7c6[C@H](C)C[C@H]7O)CC5)c5ccc(Cl)cc5)CC4)CC3)c(NC(=O)CNCc3ccncn3)c2)c1 [Compound I-165] | > 10 | > 10
NC1(C(=O)N[C@@H](CCN2CCN(C(=O)CN3CCC(OC4CCN(C(=O)c5cccc(C6CCCN(C(=O)CNC7CC7)C6)c5)CC4)CC3)CC2)c2ccc(Cl)cc2)CCN(c2ncnc3[nH]ccc23)CC1 (some centres unmarked) [Compound I-257] | > 10 | > 10
CCc1cccc(-c2cnc(C(=O)N3CCN(CC4CCN(CC(=O)NCCNC[C@@H](C(=O)N5CCN(c6ncnc7c6[C@H](C)C[C@H]7O)CC5)c5ccc(Cl)cc5)CC4)CC3)c(NC(=O)CN3CCOCC3)c2)c1 [Compound I-173] | 1 to 5 | 1 to 5
CCc1cccc(-c2cnc(C(=O)NCCOCCNCC(=O)NCCN(C[C@@H](C(=O)N3CCN(c4ncnc5c4[C@H](C)C[C@H]5O)CC3)c3ccc(Cl)cc3)C(C)C)c(NC(C)=O)c2)c1 [Compound I-216] | 1 to 5 | 1 to 5
CCc1cccc(-c2cnc(C(=O)N3CCC(CN4CCN(CC(=O)NCCNC[C@@H](C(=O)N5CCN(c6ncnc7c6[C@H](C)C[C@H]7O)CC5)c5ccc(Cl)cc5)CC4)CC3)c(NC(=O)CN3CCOCC3)c2)c1 [Compound I-172] | 5 to 10 | 5 to 10
C[C@@H]1C[C@@H](O)c2ncnc(N3CCN(C(=O)[C@H](CNCCNC(=O)CN4CCC(CN5CCNCC5)CC4)c4ccc(Cl)cc4)CC3)c21 [Compound I-328] | > 10 | > 10
CCc1cccc(-c2cnc(C(=O)N3CCC(OC4CCN(CC(=O)NCCNC[C@@H](C(=O)N5CCN(c6ncnc7c6[C@H](C)C[C@H]7O)CC5)c5ccc(Cl)cc5)CC4)CC3)c(N)c2)c1 [Compound I-194] | 5 to 10 | 5 to 10
NC1(C(=O)N[C@@H](CCN2CCC(OC3CCN(C(=O)[C@H](NC(=O)c4cccc(C5CCCN(C(=O)C6CC6)C5)c4)C4CCCCC4)CC3)CC2)c2ccc(Cl)cc2)CCN(c2ncnc3[nH]ccc23)CC1 (some centres unmarked) [Compound I-249] |  | 1 to 5

SMILES | IC50 (MDAMB468.1) [µM] | IC50 (KU1919.1) [µM]
CC(C)(C)OC(=O)N1CCC(OC2CCN(CC[C@H](NC(=O)C3(N)CCN(c4ncnc5[nH]ccc45)CC3)c3ccc(Cl)cc3)CC2)CC1 [Compound I-316] |  | 1 to 5
C=CC(=O)N1CCN(c2ccc(CCC(=O)N3CCN(CC4CCN(CC[C@H](NC(=O)C5(N)CCN(c6ncnc7[nH]ccc67)CC5)c5ccc(Cl)cc5)CC4)CC3)o2)C(=O)C1 [Compound I-286] |  | 1 to 5
C=CC(=O)N1CCN(c2ccc(CCC(=O)N3CCC(CN4CCN(CC[C@H](NC(=O)C5(N)CCN(c6ncnc7[nH]ccc67)CC5)c5ccc(Cl)cc5)CC4)CC3)o2)C(=O)C1 [Compound I-284] |  | 1 to 5
NC1(C(=O)N[C@@H](CCN2CCC(OC3CCN(C(=O)[C@H](NC(=O)c4cc(C5CCCN(C(=O)CNCc6ccc(F)cc6F)C5)ccc4F)C4CCCCC4)CC3)CC2)c2ccc(Cl)cc2)CCN(c2ncnc3[nH]ccc23)CC1 (some centres unmarked) [Compound I-222] |  | 1 to 5
CC1(C(=O)N2CCCC(c3cccc(C(=O)N[C@@H](C(=O)NCCCCCOCC[C@H](NC(=O)C4(N)CCN(c5ncnc6[nH]ccc56)CC4)c4ccc(Cl)cc4)C4CCCCC4)c3)C2)CC1 (some centres unmarked) [Compound I-297] |  | 5 to 10
NC1(C(=O)N[C@@H](CCN2CCC(OC3CCN(C(=O)[C@H](NC(=O)c4ccc(C5CCN(C(=O)CNCc6ccc(F)cc6F)CC5)cc4)C4CCCCC4)CC3)CC2)c2ccc(Cl)cc2)CCN(c2ncnc3[nH]ccc23)CC1 [Compound I-220] |  | 1 to 5
CCc1cccc(-c2cnc(C(=O)NCCOCCNCC[C@H](NC(=O)C3(N)CCN(c4ncnc5[nH]ccc45)CC3)c3ccc(Cl)cc3)c(NC(=O)CN3CCOCC3)c2)c1 [Compound I-178] |  | 1 to 5
C[C@@H]1C[C@@H](O)c2ncnc(N3CCN(C(=O)[C@@H](CCN4CCC(CN5CCN(C(=O)[C@H](NC(=O)c6cccc(C7CCCN(C(=O)CNC8CC8)C7)c6)C6CCCCC6)CC5)CC4)c4ccc(Cl)cc4)CC3)c21 (some centres unmarked) [Compound I-273] |  | 0.5 to 1
NC1(C(=O)N[C@@H](CCN2CCN(C(=O)CN3CCC(OC4CCN(C(=O)[C@H](NC(=O)c5ccc(C6CN(C(=O)C7CC7)C6)cc5)C5CCCCC5)CC4)CC3)CC2)c2ccc(Cl)cc2)CCN(c2ncnc3[nH]ccc23)CC1 [Compound I-229] |  | 1 to 5
C=CC(=O)N1CCN(c2ccc(CCC(=O)N3CCC(OC4CCN(CC[C@H](NC(=O)C5(N)CCN(c6ncnc7[nH]ccc67)CC5)c5ccc(Cl)cc5)CC4)CC3)o2)C(=O)C1 [Compound I-285] |  | > 10
CC(C)(C)OC(=O)N[C@@H](C(=O)N1CCC(OC2CCN(CC[C@H](NC(=O)C3(N)CCN(c4ncnc5[nH]ccc45)CC3)c3ccc(Cl)cc3)CC2)CC1)C1CCCCC1 [Compound I-311] |  | 0.5 to 1
NC1(C(=O)N[C@@H](CCN2CCN(C(=O)C34CCC(CN5CCN(C(=O)c6cccc(C7CCCN(C(=O)C8CC8)C7)c6)CC5)(CC3)OC4)CC2)c2ccc(Cl)cc2)CCN(c2ncnc3[nH]ccc23)CC1 (some centres unmarked) [Compound I-246] |  | 1 to 5
NC1(C(=O)N[C@@H](CCOCCN2CCC(OC3CCN(C(=O)[C@H](NC(=O)c4cccc(C5CCCN(C(=O)C67CC(C6)C7)C5)c4)C4CCCCC4)CC3)CC2)c2ccc(Cl)cc2)CCN(c2ncnc3[nH]ccc23)CC1 (some centres unmarked) [Compound I-293] |  | 1 to 5
C[C@@H]1C[C@@H](O)c2ncnc(N3CCN(C(=O)[C@H](CNCCNC(=O)CNC45CCC(CN6CCN(C(=O)[C@H](NC(=O)c7cccc(C8CCCN(C(=O)CNC9CC9)C8)c7)C7CCCCC7)CC6)(CC4)OC5)c4ccc(Cl)cc4)CC3)c21 (some centres unmarked) [Compound I-326] |  | 5 to 10
C[C@@H]1C[C@@H](O)c2ncnc(N3CCN(C(=O)[C@@H](CCN4CCC(CN5CCN(C(=O)[C@H](NC(=O)c6cccc(C7CCCN(C(=O)CNCc8ccc(F)cc8F)C7)c6)C6CCCCC6)CC5)CC4)c4ccc(Cl)cc4)CC3)c21 (some centres unmarked) [Compound I-275] |  | 0.5 to 1
CC(C)(C)OC(=O)N[C@@H](C(=O)NCC[C@H](NC(=O)C1(N)CCN(c2ncnc3[nH]ccc23)CC1)c1ccc(Cl)cc1)C1CCCCC1 [Compound I-313] |  | 1 to 5
NC1(C(=O)N[C@@H](CCN2CCC(OC3CCN(C(=O)[C@H](NC(=O)c4cccc(C5CCCN(C(=O)CNC6CC6)C5)c4)C4CCCCC4)CC3)CC2)c2ccc(Cl)cc2)CCN(c2ncnc3[nH]ccc23)CC1 (some centres unmarked) [Compound I-250] |  | 1 to 5
CCc1cccc(-c2cnc(C(=O)N3CCN(CC4CCN(CC(=O)NCCNC[C@@H](C(=O)N5CCN(c6ncnc7c6[C@H](C)C[C@H]7O)CC5)c5ccc(Cl)cc5)CC4)CC3)c(NC(=O)CNCc3ccncn3)c2)c1 [Compound I-166] |  | 1 to 5
